For assay [1], the target named is Neuronal acetylcholine receptor subunit alpha-3/beta-2 (Rattus norvegicus, UniProt P12390+P04757). Kind of assay: Binding affinity towards rat Nicotinic acetylcholine receptor alpha3-beta2 expressed in Xenopus oocytes using [3H]epibatidine as radioligand.
Assay [2] addresses Neuronal acetylcholine receptor subunit alpha-4/beta-2 (Rattus norvegicus, UniProt P09483+P12390). Briefly: Binding affinity towards rat Nicotinic acetylcholine receptor alpha4-beta2 expressed in Xenopus oocytes using [3H]epibatidine as radioligand.

Molecules are shown by their SMILES.

Neuronal acetylcholine receptor subunit alpha-4/beta-2, sequence (P09483 whole entry): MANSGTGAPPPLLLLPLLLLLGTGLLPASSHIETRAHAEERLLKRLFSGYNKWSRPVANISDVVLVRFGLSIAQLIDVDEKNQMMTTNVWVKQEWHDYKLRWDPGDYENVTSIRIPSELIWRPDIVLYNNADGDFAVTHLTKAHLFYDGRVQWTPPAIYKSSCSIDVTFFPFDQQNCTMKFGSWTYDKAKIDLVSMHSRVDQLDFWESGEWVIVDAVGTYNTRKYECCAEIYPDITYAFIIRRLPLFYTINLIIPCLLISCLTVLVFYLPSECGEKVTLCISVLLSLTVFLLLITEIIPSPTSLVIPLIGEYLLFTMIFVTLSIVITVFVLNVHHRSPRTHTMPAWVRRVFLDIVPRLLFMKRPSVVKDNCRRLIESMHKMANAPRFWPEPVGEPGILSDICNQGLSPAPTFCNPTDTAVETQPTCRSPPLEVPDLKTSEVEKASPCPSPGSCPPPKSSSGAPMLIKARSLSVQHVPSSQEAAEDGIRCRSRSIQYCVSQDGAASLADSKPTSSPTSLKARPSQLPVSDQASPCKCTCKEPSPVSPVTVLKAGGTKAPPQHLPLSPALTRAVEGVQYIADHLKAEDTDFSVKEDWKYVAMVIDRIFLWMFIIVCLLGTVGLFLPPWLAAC
Neuronal acetylcholine receptor subunit alpha-4/beta-2, sequence (P12390 whole entry): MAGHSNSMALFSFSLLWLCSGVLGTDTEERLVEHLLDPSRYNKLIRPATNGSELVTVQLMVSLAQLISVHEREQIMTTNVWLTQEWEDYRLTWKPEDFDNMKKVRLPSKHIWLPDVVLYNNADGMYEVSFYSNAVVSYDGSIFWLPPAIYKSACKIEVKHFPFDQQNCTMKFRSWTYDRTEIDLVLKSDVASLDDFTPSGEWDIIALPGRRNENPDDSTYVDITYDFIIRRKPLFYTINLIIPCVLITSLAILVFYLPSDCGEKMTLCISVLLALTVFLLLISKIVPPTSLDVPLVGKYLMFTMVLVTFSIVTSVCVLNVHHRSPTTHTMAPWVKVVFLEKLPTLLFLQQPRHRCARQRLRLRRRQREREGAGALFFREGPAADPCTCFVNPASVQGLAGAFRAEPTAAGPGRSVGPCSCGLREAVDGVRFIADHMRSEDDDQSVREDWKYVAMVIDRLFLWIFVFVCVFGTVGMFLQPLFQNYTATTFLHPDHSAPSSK
Neuronal acetylcholine receptor subunit alpha-3/beta-2, sequence (P12390 whole entry): as above
Neuronal acetylcholine receptor subunit alpha-3/beta-2, sequence (P04757 whole entry): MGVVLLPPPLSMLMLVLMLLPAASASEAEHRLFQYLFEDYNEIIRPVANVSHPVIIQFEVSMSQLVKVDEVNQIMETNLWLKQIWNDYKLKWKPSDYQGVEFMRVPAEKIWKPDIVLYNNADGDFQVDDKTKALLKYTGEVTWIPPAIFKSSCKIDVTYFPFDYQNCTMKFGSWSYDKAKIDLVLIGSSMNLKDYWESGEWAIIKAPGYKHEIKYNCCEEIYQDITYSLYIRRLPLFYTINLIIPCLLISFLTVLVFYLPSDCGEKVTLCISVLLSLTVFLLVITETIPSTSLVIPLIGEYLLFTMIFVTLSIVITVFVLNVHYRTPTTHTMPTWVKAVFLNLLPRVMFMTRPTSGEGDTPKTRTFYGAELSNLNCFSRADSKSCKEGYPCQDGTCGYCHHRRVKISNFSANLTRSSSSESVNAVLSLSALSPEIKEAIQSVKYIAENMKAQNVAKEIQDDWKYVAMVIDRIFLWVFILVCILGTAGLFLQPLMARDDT

Broadly, the Ki is the equilibrium dissociation constant of an inhibitor or competing ligand from its target. High values mean a looser hold on the target, low ones a stronger hold on the target. `Fc1ccc(C2CC3CCC2N3)cn1` [(R)-2-(6-Fluoro-pyridin-3-yl)-7-aza-bicyclo[2.2.1]heptane]: in assay [1], the affinity, expressed as Ki, was 4 pM.
The compound `c1cncc(C2CC3CCC2N3)c1` (configuration not stated) [2-(pyridin-3-yl)-7-aza-bicyclo[2.2.1]heptane] gave a Ki in assay [2] of 9 pM.
